Measured values reported in patent US20220089568A1 (Janssen Biotech, Inc., priority 2019, published 2022).

What was measured:
MOLM-13 cells = experiment: MOLM-13 Cellular Assay; type: cell-based; details: Homo sapiens, 72 hours exposure, cell viability by CellTiter-Glo
Method: The day prior to assay set-up, cells were pelleted, resuspended in fresh media, counted, and cells were plated at 0.4×10^6 cell/mL in a T150 flask. […] Cells were exposed to different concentrations of test compounds at 37° C., 5% CO2 for 72 hours immediately after seeding.

human DHODH = biological target: T1, human DHODH (Homo sapiens, UniProt Q02127); experiment: DHODH Enzymatic Assay; type: biochemical; details: purified human DHODH; DCIP absorbance, end-point mode
T1 construct: purchased Proteros PR-0044
T1 sequence (Q02127 whole entry): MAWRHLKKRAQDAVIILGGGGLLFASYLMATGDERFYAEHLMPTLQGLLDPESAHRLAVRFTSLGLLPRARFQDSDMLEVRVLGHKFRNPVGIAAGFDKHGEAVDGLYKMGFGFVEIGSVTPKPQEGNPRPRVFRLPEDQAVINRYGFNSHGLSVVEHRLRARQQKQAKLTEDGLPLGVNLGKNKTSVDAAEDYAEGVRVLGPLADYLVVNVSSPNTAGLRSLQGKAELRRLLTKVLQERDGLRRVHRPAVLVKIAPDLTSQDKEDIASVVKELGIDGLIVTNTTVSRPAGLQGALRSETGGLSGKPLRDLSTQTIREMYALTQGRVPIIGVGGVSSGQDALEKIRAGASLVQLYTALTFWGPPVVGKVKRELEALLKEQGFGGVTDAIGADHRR
Method: To detect DHODH enzyme activities, dichloroindophenol (DCIP) is added as the final electron acceptor in the assay. DCIP can accept electrons from the reduced coenzyme Q generated in the assay, or from dihydroorotate (DHO) via FMN by binding presumably to the ubiquinone pocket. […] The assay buffer contained […], pH 7.5, 150 mM NaCl, 0.5 mM EDTA, and 0.1% Triton X-100 in MilliQ water. Substrate consisting of 20 mM DHO, 5 mM CoQ6, and 1 mM DCIP in assay buffer, initiates the reaction. […] Absorbance measurements were obtained using the BMG Phera Star plate-reading spectrophotomer. Purified human DHODH was purchased from Proteros (cat. No. PR-0044). Chemicals were purchased from Sigma-Aldrich, Teknova, and Avanti Polar Lipids. Liquid handling was performed using Labcyte Echo and Formulatrix Tempest.

SMILES	EC50 (MOLM-13 cells) [nM]	EC50 (human DHODH) [nM]
CCn1c(CO)nn(-c2nc(O[C@@H](C)C(F)(F)F)c(C(=O)Nc3c(C)n[nH]c3C)cc2F)c1=O [Example 49, (S)-N-(3,5-Dimethyl-1H-pyrazol-4-yl)-6-(4-ethyl-3-(hydroxymethyl)-5-oxo-4,5-dihydro-1H-1,2,4-triazol-1-yl)-5-fluoro-2-((1,1,1-trifluoropropan-2-yl)oxy)nicotinamide]	21.1	6.4
CCn1c(CO)nn(-c2nc(O[C@@H](C)C(F)(F)F)c(C(=O)Nc3c(F)cncc3Cl)cc2F)c1=O [Example 28, (S)-N-(3-Chloro-5-fluoropyridin-4-yl)-6-(4-ethyl-3-(hydroxymethyl)-5-oxo-4,5-dihydro-1H-1,2,4-triazol-1-yl)-5-fluoro-2-((1,1,1-trifluoropropan-2-yl)oxy)nicotinamide]	4.7	2.3
CCOc1ncc(F)c(NC(=O)c2cc(F)c(-n3nc(CO)n(CC)c3=O)nc2O[C@@H](C)C(F)(F)F)n1 [Example 70, (S)-N-(2-Ethoxy-5-fluoropyrimidin-4-yl)-6-(4-ethyl-3-(hydroxymethyl)-5-oxo-4,5-dihydro-1H-1,2,4-triazol-1-yl)-5-fluoro-2-((1,1,1-trifluoropropan-2-yl)oxy)nicotinamide]	> 100	489
CCn1c(CO)nn(-c2nc(O[C@@H](C)C(F)(F)F)c(C(=O)Nc3c(OC)ccnc3Cl)cc2F)c1=O [Example 44, (S)-N-(2-Chloro-4-methoxypyridin-3-yl)-6-(4-ethyl-3-(hydroxymethyl)-5-oxo-4,5-dihydro-1H-1,2,4-triazol-1-yl)-5-fluoro-2-((1,1,1-trifluoropropan-2-yl)oxy)nicotinamide]	10.7	3.9
CCn1c(CO)nn(-c2nc(O[C@@H](C)C(F)(F)F)c(C(=O)Nc3[nH]c(=O)ccc3Cl)cc2F)c1=O [Example 23, (S)-N-(3-chloro-6-oxo-1,6-dihydropyridin-2-yl)-6-(4-ethyl-3-(hydroxymethyl)-5-oxo-4,5-dihydro-1H-1,2,4-triazol-1-yl)-5-fluoro-2-((1,1,1-trifluoropropan-2-yl)oxy)nicotinamide]	90	13.6
CCn1c(CO)nn(-c2nc(O[C@@H](C)C(F)(F)F)c(C(=O)Nc3csnc3C)cc2F)c1=O [Example 17, (S)-6-(4-Ethyl-3-(hydroxymethyl)-5-oxo-4,5-dihydro-1H-1,2,4-triazol-1-yl)-5-fluoro-N-(3-methylisothiazol-4-yl)-2-((1,1,1-trifluoropropan-2-yl)oxy)nicotinamide]	87.9	30.9
CCn1c(CO)nn(-c2nc(O[C@@H](C)C(F)(F)F)c(C(=O)Nc3cc(OC)ncc3F)cc2F)c1=O [Example 65, (S)-6-(4-Ethyl-3-(hydroxymethyl)-5-oxo-4,5-dihydro-1H-1,2,4-triazol-1-yl)-5-fluoro-N-(5-fluoro-2-methoxypyridin-4-yl)-2-((1,1,1-trifluoropropan-2-yl)oxy)nicotinamide]	> 100	202
CCn1c(CO)nn(-c2nc(O[C@@H](C)C(F)(F)F)c(C(=O)Nc3c[nH]nc3C3CC3)cc2F)c1=O [Example 62, (S)-N-(3-Cyclopropyl-1H-pyrazol-4-yl)-6-(4-ethyl-3-(hydroxymethyl)-5-oxo-4,5-dihydro-1H-1,2,4-triazol-1-yl)-5-fluoro-2-((1,1,1-trifluoropropan-2-yl)oxy)nicotinamide]	8.5	2.7
CCn1c(CO)nn(-c2nc(O[C@@H](C)C(F)(F)F)c(C(=O)Nc3cc(C(F)F)ncc3F)cc2F)c1=O [Example 81, N-[2-(Difluoromethyl)-5-fluoro-4-pyridyl]-6-[4-ethyl-3-(hydroxymethyl)-5-oxo-1,2,4-triazol-1-yl]-5-fluoro-2-[(1S)-2,2,2-trifluoro-1-methyl-ethoxy]pyridine-3-carboxamide]	> 100	568
CCn1c(CO)nn(-c2nc(O[C@@H](C)C(F)(F)F)c(C(=O)Nc3cnsc3)cc2F)c1=O [Example 12, (S)-6-(4-Ethyl-3-(hydroxymethyl)-5-oxo-4,5-dihydro-1H-1,2,4-triazol-1-yl)-5-fluoro-N-(isothiazol-4-yl)-2-((1,1,1-trifluoropropan-2-yl)oxy)nicotinamide]	672	324
CCn1c(CO)nn(-c2nc(O[C@@H](C)C(F)(F)F)c(C(=O)Nc3nccn3C3CC3)cc2F)c1=O [Example 73, (S)-N-(1-Cyclopropyl-1H-imidazol-2-yl)-6-(4-ethyl-3-(hydroxymethyl)-5-oxo-4,5-dihydro-1H-1,2,4-triazol-1-yl)-5-fluoro-2-((1,1,1-trifluoropropan-2-yl)oxy)nicotinamide]	> 100	95.2
CCCn1c(CO)nn(-c2nc(O[C@@H](C)C(F)(F)F)c(C(=O)Nc3c(C)ccnc3Cl)cc2F)c1=O [Example 84, N-(2-Chloro-4-methyl-3-pyridyl)-5-fluoro-6-[3-(hydroxymethyl)-5-oxo-4-propyl-1,2,4-triazol-1-yl]-2-[(1S)-2,2,2-trifluoro-1-methyl-ethoxy]pyridine-3-carboxamide]	4.8	5.1
CCn1c(CO)nn(-c2nc(O[C@@H](C)C(F)(F)F)c(C(=O)Nc3ncc(OC)cc3Cl)cc2F)c1=O [Example 118, N-(3-Chloro-5-methoxy-2-pyridyl)-6-[4-ethyl-3-(hydroxymethyl)-5-oxo-1,2,4-triazol-1-yl]-5-fluoro-2-[(1S)-2,2,2-trifluoro-1-methyl-ethoxy]pyridine-3-carboxamide]	6.38	4.64
CCn1c(CO)nn(-c2nc(O[C@@H](C)C(F)(F)F)c(C(=O)Nc3ccc(C)nc3Cl)cc2F)c1=O [Example 77, N-(2-Chloro-6-methyl-3-pyridyl)-6-[4-ethyl-3-(hydroxymethyl)-5-oxo-1,2,4-triazol-1-yl]-5-fluoro-2-[(1S)-2,2,2-trifluoro-1-methyl-ethoxy]pyridine-3-carboxamide]	13.2	14
CCn1c(CO)nn(-c2nc(O[C@@H](C)C(F)(F)F)c(C(=O)Nc3ccnnc3Cl)cc2F)c1=O [Example 16, (S)-N-(3-Chloropyridazin-4-yl)-6-(4-ethyl-3-(hydroxymethyl)-5-oxo-4,5-dihydro-1H-1,2,4-triazol-1-yl)-5-fluoro-2-((1,1,1-trifluoropropan-2-yl)oxy)nicotinamide]	> 1000	734

Now those with a lower EC50 (MOLM-13 cells), led by results:

EC50 (MOLM-13 cells) [nM]	EC50 (human DHODH) [nM]	SMILES
4.14	13.8	CCn1c(CO)nn(-c2nc(O[C@@H](C)C(F)(F)F)c(C(=O)Nc3c(OC)ccnc3OC)cc2F)c1=O [Example 93, N-(2,4-Dimethoxy-3-pyridyl)-6-[4-ethyl-3-(hydroxymethyl)-5-oxo-1,2,4-triazol-1-yl]-5-fluoro-2-[(1S)-2,2,2-trifluoro-1-methyl-ethoxy]pyridine-3-carboxamide]
0.328	0.312	CCn1c(CO)nn(-c2nc(O[C@@H](C)C(F)(F)F)c(C(=O)Nc3c(Cl)ccnc3OC)cc2F)c1=O [Example 126, N-(4-Chloro-2-methoxy-3-pyridyl)-6-[4-ethyl-3-(hydroxymethyl)-5-oxo-1,2,4-triazol-1-yl]-5-fluoro-2-[(1S)-2,2,2-trifluoro-1-methyl-ethoxy]pyridine-3-carboxamide]
1.5	18.1	Cc1[nH]nc(Cl)c1NC(=O)c1cc(F)c(-n2nc(CF)n(CCCO)c2=O)nc1O[C@@H](C)C(F)(F)F [Example 107, N-(3-Chloro-5-methyl-1H-pyrazol-4-yl)-5-fluoro-6-[3-(fluoromethyl)-4-(3-hydroxypropyl)-5-oxo-1,2,4-triazol-1-yl]-2-[(1S)-2,2,2-trifluoro-1-methyl-ethoxy]pyridine-3-carboxamide]
2.34	1.16	CCn1c(CO)nn(-c2nc(OC(C)C)c(C(=O)Nc3c(C)cnc(OC)c3Cl)cc2F)c1=O [Example 88, N-(3-Chloro-2-methoxy-5-methyl-4-pyridyl)-6-[4-ethyl-3-(hydroxymethyl)-5-oxo-1,2,4-triazol-1-yl]-5-fluoro-2-isopropoxy-pyridine-3-carboxamide]
0.553	0.761	CCn1c(CO)nn(-c2nc(O[C@@H](C)C(F)(F)F)c(C(=O)Nc3cc(C)ccc3Cl)cc2F)c1=O [Example 48, (S)-N-(2-Chloro-5-methylphenyl)-6-(4-ethyl-3-(hydroxymethyl)-5-oxo-4,5-dihydro-1H-1,2,4-triazol-1-yl)-5-fluoro-2-((1,1,1-trifluoropropan-2-yl)oxy)nicotinamide]
2	1.2	CCn1c(CO)nn(-c2nc(O[C@@H](C)C(F)(F)F)c(C(=O)Nc3c(C)ccnc3Cl)cc2F)c1=O [Example 5, (S)-N-(2-Chloro-4-methylpyridin-3-yl)-6-(4-ethyl-3-(hydroxymethyl)-5-oxo-4,5-dihydro-1H-1,2,4-triazol-1-yl)-5-fluoro-2-((1,1,1-trifluoropropan-2-yl)oxy)nicotinamide]
1.1	0.91	CCn1c(CO)nn(-c2nc(O[C@@H](C)C(F)(F)F)c(C(=O)Nc3c(C)cnc(OC)c3C)cc2F)c1=O [Example 85, 6-[4-Ethyl-3-(hydroxymethyl)-5-oxo-1,2,4-triazol-1-yl]-5-fluoro-N-(2-methoxy-3,5-dimethyl-4-pyridyl)-2-[(1S)-2,2,2-trifluoro-1-methyl-ethoxy]pyridine-3-carboxamide]
